# Reference: patent publication US20070128217A1 (priority 2003, published 2007)
# Key:
# [1] = test system: antibodies in sera from SARS patients (sera 1a, 1b, 2, 6, 37, 62, London, SARS-yellow, SARS-green); type: binding, human; parameters: Binding of serum 6 to linear peptides of protein X1 of SARS-CoV Urbani / Binding of serum 37 to linear peptides of protein X1 of SARS-CoV Urbani / Binding of serum 6 to looped/cyclic peptide (PEPSCAN-ELISA) / Binding of serum 37 to looped/cyclic peptide (PEPSCAN-ELISA) / Binding of serum 37 to looped/cyclic peptides of protein X1 of SARS-CoV Urbani / Binding of serum 6 to linear peptides of protein X2 / Binding of serum 37 to linear peptides of protein X2 / Binding of serum 37 to looped/cyclic peptides of protein X2 of SARS-CoV Urbani / Binding of serum 6 to linear peptides of protein M of SARS-CoV Urbani / Binding of serum 37 to linear peptides of protein M of SARS-CoV Urbani / Binding of serum 6 to looped/cyclic peptides of protein M of SARS-CoV Urbani / Binding of serum 37 to looped/cyclic peptides of protein M of SARS-CoV Urbani / Binding of serum 6 to linear peptides of protein X3 of SARS-CoV Urbani / Binding of serum 37 to linear peptides of protein X3 of SARS-CoV Urbani / Binding of serum 37 to looped/cyclic peptides of protein X3 of SARS-CoV Urbani / Binding of serum 6 to linear peptides of protein X4 of SARS-CoV Urbani / Binding of serum 37 to linear peptides of protein X4 of SARS-CoV Urbani / Binding of serum 37 to looped/cyclic peptides of protein X4 of SARS-CoV Urbani / Binding of serum 6 to linear peptides of protein X5 of SARS-CoV Urbani / Binding of serum 37 to linear peptides of protein X5 of SARS-CoV Urbani / Binding of serum 37 to looped/cyclic peptides of protein X5 of SARS-CoV Urbani / Binding of serum 6 to linear peptides of protein N of SARS-CoV Urbani / Binding of serum 37 to linear peptides of protein N of SARS-CoV Urbani / Binding of serum 6 to linear peptide (PEPSCAN-ELISA) / Binding of serum 1a to looped/cyclic peptides of protein N of SARS-CoV Urbani / Binding of serum 1b to looped/cyclic peptides of protein N of SARS-CoV Urbani / Binding of serum 2 to looped/cyclic peptides of protein N of SARS-CoV Urbani / Binding of serum 6 to looped/cyclic peptides of protein N of SARS-CoV Urbani / Binding of serum 37 to looped/cyclic peptides of protein N of SARS-CoV Urbani / Binding of serum 62 to looped/cyclic peptides of protein N of SARS-CoV Urbani / Binding of serum London to looped/cyclic peptides of protein N of SARS-CoV Urbani / Binding of serum SARS-green to looped/cyclic peptides of protein N of SARS-CoV Urbani: unit not given here
# [2] = test system: control sera (pooled serum of ten healthy LUMC hospital workers; commercial negative donor pooled serum from the Dutch bloodbank); type: binding, human; parameters: Binding of Control serum LUMC to linear peptides / Binding of Control serum Blood-bank to linear peptides / Binding of Control serum LUMC to looped peptides / Binding of Control Serum Blood-Bank to Looped peptides / Binding of Control serum LUMC to linear peptides of the protein M of SARS-CoV Urbani / Binding of Control serum Blood-bank to linear peptides of the protein M of SARS-CoV Urbani / Binding of Control serum LUMC to looped peptides of the protein M of SARS-CoV Urbani / Binding of Control Serum Blood-Bank to Looped peptides of the protein M of SARS-CoV Urbani: unit not given here
# [3] = test system: rabbit serum obtained by immunizing a rabbit with the SARS-CoV strain Frankfurt 1; type: binding; parameters: Binding of a rabbit serum to linear peptides / Binding of a rabbit serum to looped peptides / Rabbit serum linear peptides / Rabbit serum looped peptides / Binding of a rabbit serum to linear peptides of protein N of SARS-CoV Urbani (Rabbit serum linear peptides) / Binding of a rabbit serum to looped/cyclic peptides of protein N of SARS-CoV Urbani (Rabbit serum looped peptides): unit not given here
sequence,measurement,setting,value
CKYTQSTALQELLIQ,Binding of serum 1a to linear peptides of protein X2,[1],0.7
same,Binding of serum 1a to looped/cyclic peptides of protein X2 of SARS-CoV Urbani,[1],0.6
same,Binding of serum 1b to linear peptides of protein X2,[1],0.5
same,Binding of serum 1b to looped/cyclic peptides of protein X2 of SARS-CoV Urbani,[1],0.6
same,Binding of serum 2 to linear peptides of protein X2,[1],0.5
same,Binding of serum 2 to looped/cyclic peptides of protein X2 of SARS-CoV Urbani,[1],0.5
same,Binding of serum 6 to linear peptides of protein X2,[1],0.4
same,Binding of serum 6 to looped/cyclic peptides of protein X2 of SARS-CoV Urbani,[1],0.4
same,Binding of serum 37 to linear peptides of protein X2,[1],0.7
same,Binding of serum 37 to looped/cyclic peptides of protein X2 of SARS-CoV Urbani,[1],0.3
same,Binding of serum 62 to linear peptides of protein X2,[1],0.7
same,Binding of serum 62 to looped/cyclic peptides of protein X2 of SARS-CoV Urbani,[1],0.4
same,Binding of serum London to linear peptides of protein X2,[1],0.5
same,Binding of serum London to looped/cyclic peptides of protein X2 of SARS-CoV Urbani,[1],0.3
same,Binding of serum SARS-green to linear peptides of protein X2,[1],0.7
same,Binding of serum SARS-green to looped/cyclic peptides of protein X2 of SARS-CoV Urbani,[1],0.4
same,Binding of serum SARS-yellow to linear peptides of protein X2,[1],0.6
same,Binding of serum SARS-yellow to looped/cyclic peptides of protein X2 of SARS-CoV Urbani,[1],0.3
same,Binding of Control Serum Blood-Bank to Looped peptides,[2],0.4
same,Binding of Control serum Blood-bank to linear peptides,[2],0.6
same,Binding of Control serum LUMC to linear peptides,[2],0.5
same,Binding of Control serum LUMC to looped peptides,[2],0.6
same,Binding of a rabbit serum to linear peptides,[3],0.2
same,Binding of a rabbit serum to looped peptides,[3],0.2
CLCKHKKVSTNLCTH,Binding of serum 1a to looped/cyclic peptides of protein X2 of SARS-CoV Urbani,[1],0.3
same,Binding of serum 1b to looped/cyclic peptides of protein X2 of SARS-CoV Urbani,[1],0.3
same,Binding of serum 2 to looped/cyclic peptides of protein X2 of SARS-CoV Urbani,[1],0.3
same,Binding of serum 6 to looped/cyclic peptides of protein X2 of SARS-CoV Urbani,[1],0.3
same,Binding of serum 37 to looped/cyclic peptides of protein X2 of SARS-CoV Urbani,[1],0.4
same,Binding of serum 62 to looped/cyclic peptides of protein X2 of SARS-CoV Urbani,[1],0.5
same,Binding of serum London to looped/cyclic peptides of protein X2 of SARS-CoV Urbani,[1],0.2
same,Binding of serum SARS-green to looped/cyclic peptides of protein X2 of SARS-CoV Urbani,[1],0.3
same,Binding of serum SARS-yellow to looped/cyclic peptides of protein X2 of SARS-CoV Urbani,[1],0.4
same,"Recognition of the peptide by sera of SARS-CoV infected individuals, and form (linear, looped/cyclic) in which it is recognized",[1],recognized in linear form
same,Binding of Control Serum Blood-Bank to Looped peptides,[2],0.4
same,Binding of Control serum Blood-bank to linear peptides,[2],1.0
same,Binding of Control serum LUMC to linear peptides,[2],0.9
same,Binding of Control serum LUMC to looped peptides,[2],0.3
same,Binding of a rabbit serum to linear peptides,[3],0.4
same,Binding of a rabbit serum to looped peptides,[3],0.4
CLKILVRYNTRGNTY,Binding of serum 1a to linear peptides of protein X5 of SARS-CoV Urbani,[1],0.7
same,Binding of serum 1a to looped/cyclic peptides of protein X5 of SARS-CoV Urbani,[1],0.5
same,Binding of serum 1b to linear peptides of protein X5 of SARS-CoV Urbani,[1],0.7
same,Binding of serum 1b to looped/cyclic peptides of protein X5 of SARS-CoV Urbani,[1],0.2
same,Binding of serum 2 to linear peptides of protein X5 of SARS-CoV Urbani,[1],0.8
same,Binding of serum 2 to looped/cyclic peptides of protein X5 of SARS-CoV Urbani,[1],0.5
same,Binding of serum 6 to linear peptides of protein X5 of SARS-CoV Urbani,[1],0.8
same,Binding of serum 6 to looped/cyclic peptides of protein X5 of SARS-CoV Urbani,[1],0.4
same,Binding of serum 37 to linear peptides of protein X5 of SARS-CoV Urbani,[1],0.7
same,Binding of serum 37 to looped/cyclic peptides of protein X5 of SARS-CoV Urbani,[1],0.5
same,Binding of serum 62 to linear peptides of protein X5 of SARS-CoV Urbani,[1],0.8
same,Binding of serum 62 to looped/cyclic peptides of protein X5 of SARS-CoV Urbani,[1],0.7
same,Binding of serum London to linear peptides of protein X5 of SARS-CoV Urbani,[1],0.7
same,Binding of serum London to looped/cyclic peptides of protein X5 of SARS-CoV Urbani,[1],0.2
same,Binding of serum SARS-green to linear peptides of protein X5 of SARS-CoV Urbani,[1],0.7
same,Binding of serum SARS-green to looped/cyclic peptides of protein X5 of SARS-CoV Urbani,[1],0.4
same,Binding of serum SARS-yellow to linear peptides of protein X5 of SARS-CoV Urbani,[1],0.3
same,Binding of serum SARS-yellow to looped/cyclic peptides of protein X5 of SARS-CoV Urbani,[1],0.8
same,Binding of Control Serum Blood-Bank to Looped peptides,[2],0.4
same,Binding of Control serum Blood-bank to linear peptides,[2],0.8
same,Binding of Control serum LUMC to linear peptides,[2],0.4
same,Binding of Control serum LUMC to looped peptides,[2],0.6
same,Rabbit serum linear peptides,[3],1.1
same,Rabbit serum looped peptides,[3],0.2
CNLLLLFVTIYSHLL,Binding of serum 1a to linear peptides of protein X1 of SARS-CoV Urbani,[1],0.7
same,Binding of serum 1a to looped/cyclic peptide (PEPSCAN-ELISA),[1],0.5
same,Binding of serum 1b to linear peptides of protein X1 of SARS-CoV Urbani,[1],0.5
same,Binding of serum 1b to looped/cyclic peptide (PEPSCAN-ELISA),[1],0.4
same,Binding of serum 2 to linear peptides of protein X1 of SARS-CoV Urbani,[1],0.5
same,Binding of serum 2 to looped/cyclic peptide (PEPSCAN-ELISA),[1],0.4
same,Binding of serum 6 to linear peptides of protein X1 of SARS-CoV Urbani,[1],0.4
same,Binding of serum 6 to looped/cyclic peptide (PEPSCAN-ELISA),[1],0.3
same,Binding of serum 37 to linear peptides of protein X1 of SARS-CoV Urbani,[1],0.6
same,Binding of serum 37 to looped/cyclic peptide (PEPSCAN-ELISA),[1],0.5
same,Binding of serum 62 to linear peptides of protein X1 of SARS-CoV Urbani,[1],0.4
same,Binding of serum 62 to looped/cyclic peptide (PEPSCAN-ELISA),[1],0.5
same,Binding of serum London to linear peptides of protein X1 of SARS-CoV Urbani,[1],0.2
same,Binding of serum London to looped/cyclic peptide (PEPSCAN-ELISA),[1],0.2
same,Binding of serum SARS-green to linear peptides of protein X1 of SARS-CoV Urbani,[1],0.1
same,Binding of serum SARS-green to looped/cyclic peptide (PEPSCAN-ELISA),[1],0.2
same,Binding of serum SARS-yellow to linear peptides of protein X1 of SARS-CoV Urbani,[1],0.4
same,Binding of serum SARS-yellow to looped/cyclic peptide (PEPSCAN-ELISA),[1],0.4
same,Binding of Control Serum Blood-Bank to Looped peptides,[2],0.5
same,Binding of Control serum Blood-bank to linear peptides,[2],0.4
same,Binding of Control serum LUMC to linear peptides,[2],0.4
same,Binding of Control serum LUMC to looped peptides,[2],0.5
same,Binding of a rabbit serum to linear peptides,[3],0.1
same,Binding of a rabbit serum to looped peptides,[3],0.6
